# In PubChem BioAssay (NCI):
#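 Values below derive from 48-hour exposures of cells grown in 96-well plates, with endpoints linearly interpolated between the two concentrations bracketing the appropriate inhibition level. TGI marks complete inhibition of growth.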
# Key:
# Assay in all cases: NCI tumour cell line growth inhibition, 48 h
# [1] = test system: M19-MEL melanoma
# [2] = test system: SF-268 CNS
# [3] = test system: A498 renal
# [4] = test system: DMS 114 small cell lung
# [5] = test system: HOP-92 NSCLC
# [6] = test system: KM12 colon
# [7] = test system: LXFL 529 NSCLC
# [8] = test system: SN12C renal
# [9] = test system: K-562 leukemia
# [10] = test system: XF 498 CNS
# [11] = test system: NCI-H522 lung
# [12] = test system: NCI-H460 lung
# [13] = test system: EKVX NSCLC
# [14] = test system: RXF-631 renal
# [15] = test system: DMS 273 small cell lung
# [16] = test system: SF-295 CNS
# [17] = test system: HOP-18 NSCLC
# [18] = test system: DU-145 prostate
# [19] = test system: PC-3 prostate
# [20] = test system: NCI/ADR-RES ovarian
SMILES,TGI [1] [µM],TGI [2] [µM],TGI [3] [µM],TGI [4] [µM],TGI [5] [µM],TGI [6] [µM],TGI [7] [µM],TGI [8] [µM],TGI [9] [µM],TGI [10] [µM],TGI [11] [µM],TGI [12] [µM],TGI [13] [µM],TGI [14] [µM],TGI [15] [µM],TGI [16] [µM],TGI [17] [µM],TGI [18] [µM],TGI [19] [µM],TGI [20] [µM]
CCCCN=C1OCc2[nH][nH]c(=O)c21,> 100,> 100,> 100,> 100,> 100,> 100,> 100,> 100,> 100,> 100,> 100,> 100,> 100,> 100,> 100,> 100,–,–,–,–
O=c1nc2sc3ccc4ccccc4c3n2[nH]c1=O,–,> 100,–,> 100,–,> 100,> 100,> 100,> 100,–,> 100,> 100,> 100,–,> 100,> 100,> 100,–,–,–
C[C@]12CC[C@@H]3c4ccc(OCCN5CCCC5)cc4CC[C@H]3[C@@H]1CCC2=O,–,–,> 100,–,> 100,–,–,–,> 100,–,–,53.9,67.6,–,–,43.2,–,> 100,> 100,> 100
CCCCCCCCCCCCCCCC(=O)OC1C(O)C(CO)OC(OC)C1NC(=O)N(CCCl)N=O (stereo unspecified),32.3,15.5,–,28,–,35.1,25.1,–,66.1,30.8,23.8,17.6,34.7,32,29.4,24,31.3,–,–,–
